US5736380A, “Maltose-trehalose converting enzyme, and preparation and uses thereof” (Kabushiki Kaisha Hayashibara Seibutsu Kagaku Kenkyujo, priority 1993, dated 1998)

Tests used:
[1] = biological target: enzyme from Pseudomonas putida H262 (Pseudomonas putida, UniProt Q88FN0); experiment: Action on saccharides (TLC), 35° C.; format: biochemical
Procedure: A variety of saccharides were tested for determining whether they could be used as a substrate for the present enzyme.
(§1) The solutions were respectively mixed with 2 units/g substrate, d.s.b., of a maltose-trehalose converting enzyme obtained by the method in Experiment 2, adjusted their substrate concentrations to 5 w/v %, and subjected to enzymatic reaction at 20° C. and pH 7.0 for 24 hours. The solutions before and after their enzymatic reactions were subjected to thin layer chromatography (TLC) using "[…] 60 (20×20 cm)", an aluminum plate for TLC commercialized by Merck & Co., Inc., Rahway, USA, for determining whether the present enzyme acts on the saccharides. The resultant products were developed once on the plates by using a developing solvent system of 1-butanol, pyridine and water (=6:4:1 by volume). The products on the plates were colored by spraying thereto a 20 v/v % sulfuric acid in methanol, and heating the plates at 110° C. for 10 min.
A variety of saccharides were tested for determining whether they could be used as a substrate for the present enzyme from Pseudomonas putida H262 obtained in Experiment 10 in accordance with the method in Experiment 4 except for setting the reaction temperature to 35° C. Similarly as the enzyme from Pseudomonas putida H262, the enzyme from Pimelobacter sp.

[2] = tested on: Partially purified enzymes derived from known microorganisms of the genus Thermus; experiment: Action on saccharides, partially purified enzymes; format: biochemical; conditions: method of Experiment 18
Procedure: A variety of saccharides were tested for determining whether they could be used as a substrate for the present enzyme from Thermus aquaticus (ATCC 33923), obtained in accordance with the method in Experiment 4 except for setting the reaction temperature to 50° C. Similarly as the enzymes from Pimelobacter sp.
Among conventional microorganisms, a microorganism which had been confirmed its ability to form the present maltose-trehalose converting enzyme was incubated in an Erlenmeyer flask for 48 hours in accordance with Experiment 15. After analyzed the enzyme activity, the resultant culture was subjected to a cell disrupting apparatus in accordance with Experiment 16. From the resultant mixture a supernatant was prepared and dialyzed to obtain a partially purified enzyme, followed by analyzing the property in accordance with Experiment 17.
Partially purified enzymes derived from known microorganisms of the genus Thermus as shown in Table 12 were studied on their action on a variety of saccharides in accordance with the method in Experiment 18.

[3] = biological target: T1, maltose-trehalose converting enzyme derived from Pimelobacter sp. R48 (Pimelobacter sp., UniProt P72235); experiment: Action on saccharides (TLC before and after enzymatic reaction); format: biochemical; conditions: 20° C., pH 7.0, 24 hours
T1 construct: The culture obtained in Experiment 1 was centrifuged to obtain an about 0.5 kg wet cells; endogenous in cells; host or cells: Pimelobacter sp; R48 (FERM BP-4315), enzyme purified from the disrupted wild-type cells
T1 sequence (P72235 1-573): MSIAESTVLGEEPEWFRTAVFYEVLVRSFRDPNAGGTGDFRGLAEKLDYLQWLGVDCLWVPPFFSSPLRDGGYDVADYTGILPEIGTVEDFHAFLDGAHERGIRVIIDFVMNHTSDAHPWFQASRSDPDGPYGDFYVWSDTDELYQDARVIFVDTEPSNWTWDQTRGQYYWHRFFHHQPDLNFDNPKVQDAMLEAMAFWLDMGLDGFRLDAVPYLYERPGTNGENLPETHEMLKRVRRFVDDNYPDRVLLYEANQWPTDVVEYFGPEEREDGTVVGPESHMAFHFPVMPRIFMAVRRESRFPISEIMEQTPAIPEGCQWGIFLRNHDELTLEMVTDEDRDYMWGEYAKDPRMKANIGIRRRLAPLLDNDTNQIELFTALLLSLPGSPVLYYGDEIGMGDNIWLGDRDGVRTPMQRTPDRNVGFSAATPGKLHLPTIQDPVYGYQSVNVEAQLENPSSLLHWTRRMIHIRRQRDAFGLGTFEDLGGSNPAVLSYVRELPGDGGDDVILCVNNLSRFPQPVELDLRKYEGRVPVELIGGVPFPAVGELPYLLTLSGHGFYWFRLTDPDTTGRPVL
Procedure: A variety of saccharides were tested for determining whether they could be used as a substrate for the present enzyme. Glucose, maltose, maltotriose,maltotetraose, maltopentaose, maltohexaose, maltoheptaose, soluble starch, amylose having an average polymerization degree of 18, trehalose, neotrehalose, gentiobiose, kojibiose, isomaltose, cellobiose, maltitol, sucrose, maltulose, turanose, paratinose, trehalulose or lactose was prepared into a solution. A solution containing glucose and the equal amount of α-glucose 1-phosphate or β-glucose 1-phosphate was prepared.
as §1

mice = experiment: Acute toxicity test, oral; format: in vivo; conditions: highest level of dose administrable
Procedure: (§2) By using mice, the high-purity trehalose specimen with a purity of 99.8%, d.s.b., prepared in Experiment 8 was orally administered to the mice for its acute toxicity test. […] Though it is not so accurate, the LD50 was determined to be 50 g/kg or higher.

[4] = Acute toxicity test, oral; format: in vivo; conditions: mouse, in vivo, mice, not so accurate
Procedure: as §2

[5] = Utilization test in vivo (blood sugar- and insulin-levels after oral administration); conditions: 30 g as 20 w/v % aqueous solution, orally, healthy male volunteers
Procedure: In accordance with the method as reported by H. Atsuji et al. in Journal of Clinical Nutrition, Vol.41, No.2, pp.200-208 (1972), 30 g of the high-purity trehalose specimen with a purity of 99.8%, d.s.b., in Experiment 8 was prepared into a 20 w/v % aqueous solution which was then orally administered to 3 healthy male volunteers, and their bloods were sampled at prescribed time intervals, followed by the measurements of the blood sugar- and insulin-levels. As a control glucose was used. […] Thus, the present trehalose and saccharide composition containing the same are suitably used as an energy-supplementing saccharide.

[6] = Physicochemical property of trehalose: solubility in water; conditions: at 25° C., for anhydrous trehalose
Procedure: A high-purity trehalose specimen prepared by the method in Experiment 8 was studied on its physicochemical property. As a result, the melting point was determined as 97.0° C., the specific rotation was [α]D^20 +199° […].

Sequence of enzyme from Pseudomonas putida H262 (Q88FN0 entry or part of it): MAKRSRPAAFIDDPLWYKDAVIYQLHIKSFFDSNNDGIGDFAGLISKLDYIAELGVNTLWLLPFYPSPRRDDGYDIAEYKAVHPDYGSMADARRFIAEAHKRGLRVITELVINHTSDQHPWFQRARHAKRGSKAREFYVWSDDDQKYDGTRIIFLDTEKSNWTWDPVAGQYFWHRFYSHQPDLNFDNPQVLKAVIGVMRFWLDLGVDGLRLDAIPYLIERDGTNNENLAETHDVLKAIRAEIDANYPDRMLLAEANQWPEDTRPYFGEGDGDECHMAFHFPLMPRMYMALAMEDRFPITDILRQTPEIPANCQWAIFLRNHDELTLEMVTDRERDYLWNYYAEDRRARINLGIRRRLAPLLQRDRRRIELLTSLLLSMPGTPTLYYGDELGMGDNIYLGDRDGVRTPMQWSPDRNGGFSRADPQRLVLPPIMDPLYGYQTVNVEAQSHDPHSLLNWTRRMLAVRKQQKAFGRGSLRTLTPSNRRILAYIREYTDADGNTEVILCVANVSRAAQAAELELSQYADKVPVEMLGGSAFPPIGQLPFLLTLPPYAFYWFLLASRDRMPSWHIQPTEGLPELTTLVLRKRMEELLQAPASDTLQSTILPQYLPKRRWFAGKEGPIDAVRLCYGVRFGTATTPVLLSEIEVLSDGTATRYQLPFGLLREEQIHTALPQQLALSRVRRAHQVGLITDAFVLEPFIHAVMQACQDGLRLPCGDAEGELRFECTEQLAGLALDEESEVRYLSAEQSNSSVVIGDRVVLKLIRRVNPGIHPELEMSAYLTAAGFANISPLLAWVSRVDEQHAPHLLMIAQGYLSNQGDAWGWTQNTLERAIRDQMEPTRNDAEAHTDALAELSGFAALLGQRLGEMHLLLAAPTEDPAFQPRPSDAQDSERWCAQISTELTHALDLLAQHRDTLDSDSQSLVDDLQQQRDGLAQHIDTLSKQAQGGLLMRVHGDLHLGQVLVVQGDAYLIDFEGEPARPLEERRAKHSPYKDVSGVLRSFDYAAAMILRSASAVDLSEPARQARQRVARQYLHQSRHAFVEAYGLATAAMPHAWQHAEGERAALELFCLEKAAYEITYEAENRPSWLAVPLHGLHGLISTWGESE

Row | SMILES | action of enzyme on saccharide [1] | action of enzyme on saccharide [2] | Action of enzyme ([3]; 2 units/g substrate, substrate 5 w/v %) | action of enzyme on saccharide [3] | mortality (mice) | LD50 [4] [mg/kg] | blood sugar- and insulin-levels compared with glucose control [5] | time of the maximum of blood sugar-level after the administration [5] [h] | time of the maximum of insulin-level after the administration [5] [h] | solubility in water [6] [g]
1 | OC[C@H]1O[C@H](O[C@H]2[C@H](O)[C@@H](O)[C@H](O)O[C@@H]2CO)[C@H](O)[C@@H](O)[C@@H]1O [Maltose] | specifically acted on | specifically acted on | + + | only acts on | – | – | – | – | – | –
2 | OC[C@H]1O[C@H](O[C@H]2O[C@H](CO)[C@@H](O)[C@H](O)[C@H]2O)[C@H](O)[C@@H](O)[C@@H]1O [Trehalose] | specifically acted on | specifically acted on | – | only acts on | – | – | – | – | – | –
3 | OC[C@H]1O[C@H](O[C@H]2O[C@H](CO)[C@@H](O)[C@H](O)[C@H]2O)[C@H](O)[C@@H](O)[C@@H]1O [high-purity trehalose specimen, trehalose] | – | – | – | – | no mouse died | ≥ 50000 | behaved similarly as glucose | 0.5 to 1 | 0.5 to 1 | 77.0
